Test results as given in US9918963B2, “Therapeutic agent for disease based on inhibitory effect of macrophage migration inhibitory factor” (TOYAMA CHEMICAL CO., LTD., priority 2013, dated 2018).

Key:
[1] = tested on: chronic constriction nerve injury model rat; assay: Chronic constriction nerve injury model rat, mechanical allodynia by von Frey test; type: in vivo
Protocol: This test was performed by referring to a method of Bennett et al. (Pain, 1988, vol. 33, pp. 87-107). Compound A was used as a test substance, and celecoxib, one of NSAIDs, was used as a reference substance. The compound A was administered at a dose of 30 mg/kg (Compound A group). The celecoxib was administered at a dose of 30 mg/kg (celecoxib group). To a control group, a 0.5% methyl cellulose aqueous solution used as a vehicle was administered. Under anesthetic with Somnopentyl (manufactured by Kyoritsu Seiyaku Corporation, about 52 mg/kg, intraperitoneal administration), nerve constriction operation was performed on the left sciatic nerves of Sprague-Dawley male rats (7 weeks old). Briefly, a left femoral region of each rat was dissected, the sciatic nerve was detached from tissues around, and the nerve was loosely constricted with a 4-0 silk suture (manufactured by Eticon Inc., surgical silk) for having narrow parts in four positions at intervals of about 1 mm. The muscular layer and the skin were respectively sutured, and the operation region was disinfected. The vehicle, the test substance or the reference substance was orally administered once a day continuously for 14 days from the 16th day after the operation. From the start of the administration, pain sense (mechanical allodynia) of the footpad of left hind paw was evaluated by von Frey test. […] The evaluation of the pain sense was expressed as an average of pain threshold values.

MIF = target: T1, MIF (Homo sapiens, UniProt P14174); assay: Confirmation of the binding of Compound A and MIF (compound beads pull-down from THP-1 cell lysate, Western blotting); conditions: elution with 0.5 mmol/L Compound A, anti-MIF Western blotting
T1 construct: (catalogue number not given); host or cells: E. coli BL21 Star (DE3)
T1 sequence (P14174 2-115 limits assumed): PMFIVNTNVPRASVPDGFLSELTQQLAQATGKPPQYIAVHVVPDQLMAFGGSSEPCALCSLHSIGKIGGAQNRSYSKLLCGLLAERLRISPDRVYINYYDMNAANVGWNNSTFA
Protocol: THP-1 cells were cultured for about 6 hours in PRMI 1640 medium containing 1% fetal bovine serum and 50 μmol/L 2-mercaptoethanol. Then, lipopolysaccharide (E. coli 0127:B8, Sigma Aldrich) was added to the culture plate at a final concentration of 1 μg/mL, and the cells were cultured for about 30 minutes. The cells were harvested and washed with phosphate buffered saline, and mixed with about 2-fold volume of cell lysis buffer (20 mmol/L Tris, 150 mmol/L sodium chloride, 1 mmol/L magnesium chloride, 0.1% NP-40, 1 mmol/L dithiothreitol, 0.1% Triton X-100, pH 7.4). The resultant mixture was placed on ice with occasional stirring for about 30 minutes, and was centrifuged (20000×g, 4° C., 8 minutes). The separated and gained supernatant was used as cell lysate. Protein concentration of the cell lysate was measured with BCA protein assay reagent (Thermo Fisher Scientific K.K.) in accordance with its manual.
Immobilization of 4-amino-N-[7-[(methylsulfonyl)amino]-4-oxo-6-phenoxy-4H-1-benzopyran-3-yl]butanamide hydrochloride on Dynabeads M-270 Carboxylic Acid (Life Technologies Corporation) was performed by a general method. […]

CS(=O)(=O)Nc1cc2occ(NC=O)c(=O)c2cc1Oc1ccccc1 [Compound A, N-[7-[(methylsulfonyl)amino]-4-oxo-6-phenoxy-4H-1-benzopyran-3-yl]formamide]
Effect on the symptom of mechanical allodynia ([1]; 30 mg/kg orally once a day for 14 days, compared with control group): inhibited the symptom of the mechanical allodynia | Average of pain thresholds, 30th day after operation ([1]; von Frey test, left hind paw, 30 mg/kg orally once a day for 14 days from the 16th day after operation): 13.5 g | Average of pain thresholds, 15th day after operation ([1]; von Frey test, left hind paw, day before start of administration, 30 mg/kg groups): 2.4 g | Binding of MIF to Compound A (MIF): specifically binds
